Biological target: T1, Human SST5 somatostatin receptor (SSTR5) (Homo sapiens, UniProt P35346)
T1 construct: expressed in transfected cells; host or cells: HEK-293 EBNA
Assay: Filter plate assay for SST5 receptor, displacement of [125I]SST-14
Type: binding
Protocol: Receptor membrane preparations containing the desired cloned receptor (for example cloned human somatostatin receptor subtype 5, SSTR5) and radio-labeled ligand (for example 3-[^125I]iodotyrosyl^11 Somatostatin-14)) were diluted at the concentration required for testing and according to the specific parameters associated with the selected receptor-ligand combination, including receptor Bmax, ligand Kd and any other parameters necessary to optimize the experimental conditions. When tested for competition activity to the reference ligand, “compound 1” was mixed with membrane suspension and the radiolabeled reference ligand (with or without an excess of cold ligand to the receptor for determination of non-specific binding) and incubated at the temperature required by internal standard operating procedures. Following incubation, the binding reaction was stopped by the addition of ice-cold washing buffer and filtered on appropriate filters, which are then counted. Data analysis and curve-fitting was performed with XLfit (IDBS).
10 mM solutions of test compounds in 100% DMSO were prepared. ˜160 μl was used for each dilution (20 μl/well in triplicate).
A 1.25 mM assay stock was prepared by making a 1:8 dilution of the 10 mM solution. (To 30 μL of the 10 mM solution was added 210 μL milli-Q H2O. A 1:5 dilution series in milli-Q H2O was then prepared.
Assays were performed in triplicate at each concentration within the 1:5 dilution series: 250 μM, 50 μM, 10 μM, […], 0.4 μM, 0.08 μM, 0.016 μM, 0.0032 μM, etc. (for SST4 assay) and 125 μM, 10 μM, 2 μM, 1 μM, 0.5 μM, etc (for SST5 assay).
Human SST5 somatostatin receptor was transfected into HEK-293 EBNA cells. Membranes were suspended in assay buffer (50 mM Tris-HCl, 1 mM EGTA, 5 mM MgCl2, 10% sucrose, pH 7.5).
After thawing the frozen receptor preparation rapidly, receptors were diluted with binding buffer, homogenized, and kept on ice. • 1. Use Multiscreen glass fiber filter plates (Millipore, Cat No MAFCNOB10) precoated with o.5% PEI for ˜2 hr at 4° C. Before use add 200 μl/well assay buffer and filter using Multiscreen Separation System. • 2. Incubate 5.5 μg of membranes (40 μl of a 1:40 dilution), buffer and [^125I]SST-14 (4 nM, ˜80 000 cpm, 2000 Ci/mmol) in a total volume of 200 μl for 60 min at 25° C. […] Prepare serial dilutions (1:5) of compounds, as described above and instead of adding SST-14 in well, add 20 μl of compounds (Table 1). • 3. Filter using Multiscreen Separation System with 5×0.2 ml ice-cold Assay buffer. • 4. Remove the plastic underdrain and dry plate in oven for 1 hr at 40° C. • 5. Seal tape to the bottom of the plate. • 6. Add 50 μl/well scintillant (Supermix, Wallac, Cat No 1200-439). • 7. Seal and count in the BJET, program 2.
In primary screening experiments compounds were tested in duplicate for a particular concentration.

T1 sequence (P35346 whole entry): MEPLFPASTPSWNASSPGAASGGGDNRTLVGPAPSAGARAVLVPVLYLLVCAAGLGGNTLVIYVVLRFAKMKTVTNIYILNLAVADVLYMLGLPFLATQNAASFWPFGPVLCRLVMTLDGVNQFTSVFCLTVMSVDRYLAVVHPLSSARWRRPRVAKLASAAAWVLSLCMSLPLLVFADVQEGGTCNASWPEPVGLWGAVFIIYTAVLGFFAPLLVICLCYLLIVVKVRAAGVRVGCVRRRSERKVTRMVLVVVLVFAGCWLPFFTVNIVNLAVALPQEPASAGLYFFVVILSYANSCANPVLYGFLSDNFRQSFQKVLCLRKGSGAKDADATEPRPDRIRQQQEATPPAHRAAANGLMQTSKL

Row | Compound | SSTR5 Inhib 0.5 uM % (inhibition of binding of SST-14 to SSTR5) [%] | SSTR5 Inhib 10 uM % (inhibition of binding of SST-14 to SSTR5) [%]
1 | COC[C@H]1OC(OCc2ccc3ccccc3c2)[C@H](NC(=O)CCCN)[C@@H](OCc2cccc(O)c2)[C@@H]1O (stereo partly drawn) [Compound 82] | 48 | 87
2 | CSC1OC(COCc2ccc(Cl)cc2)C(O)C(OCc2ccc(-c3ccccc3)cc2)C1NC(=O)CN (stereo not drawn) [Compound 83] | 61 | 87
3 | COC[C@H]1OC(OCc2ccc3ccccc3c2)[C@H](NC(=O)CCNC(=N)N)[C@H](OCc2ccccc2)[C@@H]1O (stereo partly drawn) [Compound 85] | 54 | 87
4 | COC[C@H]1OC(OCc2ccc3ccccc3c2)[C@H](NC(=O)CCNC(=N)N)[C@@H](OCc2ccc(-c3ccccc3)cc2)[C@@H]1O (stereo partly drawn) [Compound 86] | 58 | 87
5 | COC[C@H]1OC(OCc2ccccc2)[C@H](NC(=O)CCNC(=N)N)[C@H](OCc2ccc(-c3ccccc3)cc2)[C@@H]1O (stereo partly drawn) [Compound 87] | 43 | 86
6 | COC[C@H]1OC(OCc2ccc3ccccc3c2)[C@H](NC(=O)CNC(=N)N)[C@@H](OCc2ccc(-c3ccccc3)cc2)[C@@H]1O (stereo partly drawn) [Compound 88] | 63 | 86
7 | CSC1O[C@H](COCc2ccc3ccccc3c2)[C@@H](O)[C@@H](OCc2ccccc2)[C@H]1NC(=O)CCNC(=N)N (stereo partly drawn) [Compound 89] | 58 | 86
8 | COC[C@H]1OC(OCc2ccc(Cl)cc2)[C@H](NC(=O)CCCN)[C@@H](OCc2ccc(-c3ccccc3)cc2)[C@@H]1O (stereo partly drawn) [Compound 90] | 52 | 86
9 | CSC1O[C@H](COCc2ccccc2)[C@@H](O)[C@@H](OCc2ccc3ccccc3c2)[C@H]1NC(=O)CCCNC(=N)N (stereo partly drawn) [Compound 91] | 53 | 86
10 | COC[C@H]1OC(OCc2ccc3ccccc3c2)[C@H](NC(=O)CCCN)[C@H](OCc2ccccc2)[C@@H]1O (stereo partly drawn) [Compound 92] | 52 | 86
11 | COC[C@H]1OC(OCc2ccc(-c3ccccc3)cc2)[C@H](NC(=O)CCCNC(=N)N)[C@@H](OCc2ccc(Cl)cc2)[C@@H]1O (stereo partly drawn) [Compound 93] | 47 | 86
12 | CSC1O[C@H](COCc2ccccc2)[C@@H](O)[C@@H](OCc2ccc(-c3ccccc3)cc2)[C@H]1NC(=O)CCCN (stereo partly drawn) [Compound 94] | 45 | 86
13 | COC[C@H]1OC(OCc2ccccc2)[C@H](NC(=O)CCCN)[C@@H](OCc2ccc(-c3ccccc3)cc2)[C@@H]1O (stereo partly drawn) [Compound 95] | 44 | 85
14 | COC[C@H]1OC(OCc2ccc(Cl)cc2)[C@H](NC(=O)CCCNC(=N)N)[C@@H](OCc2ccc(-c3ccccc3)cc2)[C@@H]1O (stereo partly drawn) [Compound 96] | 43 | 85
15 | CSC1O[C@H](COCc2ccc3ccccc3c2)[C@@H](O)[C@@H](OCc2ccc(-c3ccccc3)cc2)[C@H]1NC(=O)CN (stereo partly drawn) [Compound 97] | 41 | 85
16 | COC[C@H]1OC(OCCc2ccccc2)[C@H](NC(=O)CCCNC(=N)N)[C@@H](OCc2ccc(Cl)cc2)[C@@H]1O (stereo partly drawn) [Compound 98] | 55 | 84

The remaining lines, values ahead:

Row | SSTR5 Inhib 0.5 uM % (inhibition of binding of SST-14 to SSTR5) [%] | SSTR5 Inhib 10 uM % (inhibition of binding of SST-14 to SSTR5) [%] | Compound
17 | 43 | 84 | COC[C@H]1OC(OCc2ccc(Cl)cc2)[C@H](NC(=O)CCNC(=N)N)[C@H](OCc2ccc(-c3ccccc3)cc2)[C@@H]1O (stereo partly drawn) [Compound 99]
18 | 59 | 84 | COC[C@H]1OC(OCc2ccccc2)[C@H](NC(=O)CCCNC(=N)N)[C@H](OCc2ccc3ccccc3c2)[C@@H]1O (stereo partly drawn) [Compound 100]
19 | 50 | 84 | COC[C@H]1OC(OCc2ccc(Cl)cc2)[C@H](NC(=O)CCNC(=N)N)[C@@H](OCc2ccc(-c3ccccc3)cc2)[C@@H]1O (stereo partly drawn) [Compound 101]
20 | 42 | 84 | COC[C@H]1OC(OCc2ccccc2)[C@H](NC(=O)CCNC(=N)N)[C@H](OCc2ccc(Cl)cc2)[C@@H]1O (stereo partly drawn) [Compound 102]
21 | 48 | 84 | COC[C@H]1OC(OCc2ccc3ccccc3c2)[C@H](NC(=O)CCCNC(=N)N)[C@@H](OCc2ccc(Cl)cc2)[C@@H]1O (stereo partly drawn) [Compound 103]
22 | 47 | 84 | COC[C@H]1OC(OCc2ccc3ccccc3c2)[C@H](NC(=O)CCCNC(=N)N)[C@@H](OCc2ccc3ccccc3c2)[C@@H]1O (stereo partly drawn) [Compound 104]
23 | 44 | 83 | CSC1O[C@H](COCc2ccc3ccccc3c2)[C@@H](O)[C@@H](OCc2ccccc2)[C@H]1NC(=O)CCN (stereo partly drawn) [Compound 105]
24 | 53 | 83 | COC[C@H]1OC(OCCc2ccccc2)[C@H](NC(=O)CCN)[C@H](OCc2ccccc2)[C@@H]1O (stereo partly drawn) [Compound 106]
25 | 54 | 83 | COC[C@H]1OC(OCc2ccc(-c3ccccc3)cc2)[C@H](NC(=O)CCCNC(=N)N)[C@@H](OCc2ccc3ccccc3c2)[C@@H]1O (stereo partly drawn) [Compound 107]
26 | 47 | 83 | COC[C@H]1OC(OCc2ccc(-c3ccccc3)cc2)[C@H](NC(=O)CCNC(=N)N)[C@@H](OCc2ccc(Cl)cc2)[C@@H]1O (stereo partly drawn) [Compound 108]
27 | 44 | 83 | CSC1O[C@H](COCc2ccccc2)[C@@H](O)[C@@H](OCc2ccc3ccccc3c2)[C@H]1NC(=O)CCN (stereo partly drawn) [Compound 109]
28 | 45 | 83 | COC[C@H]1OC(OCc2ccccc2)[C@H](NC(=O)CCCN)[C@@H](OCc2ccc(Cl)cc2)[C@@H]1O (stereo partly drawn) [Compound 110]
29 | 36 | 83 | CSC1O[C@H](COCc2ccc(Cl)cc2)[C@@H](O)[C@@H](OCc2ccc(-c3ccccc3)cc2)[C@H]1NC(=O)CNC(=N)N (stereo partly drawn) [Compound 111]
30 | 58 | 83 | COC[C@H]1OC(OCc2ccccc2)[C@H](NC(=O)CCNC(=N)N)[C@H](OCc2ccccc2)[C@@H]1O (stereo partly drawn) [Compound 112]
